≈ marks a conversion by molar mass, not a printed value.
How the values were obtained:
R2351Q mPIEZO1 = target: T1, R2351Q mPIEZO1 (Mus musculus, UniProt E2JF22, R2351Q); test: Intracellular Ca2+ measurement (fura-2), T-REx-293 cells stably transfected; format: cell-based; settings: for Mean (Ca2+ signal time course, Figure 4f) / Mean (concentration-response, Figure 4g): R2351Q
T1 construct: expressed in transfected cells

[1] = Aqueous (kinetic) solubility; format: physicochemical; settings: pH 7.4, aqueous buffer, kinetic from dmso stock; physiological pH in PBS
Protocol: Aqueous solubility, mouse microsomal stability and mouse plasma protein binding assays were performed by Malvern Panalytical (UK) as previously described.[29]

T1 sequence (E2JF22 whole entry R2351Q): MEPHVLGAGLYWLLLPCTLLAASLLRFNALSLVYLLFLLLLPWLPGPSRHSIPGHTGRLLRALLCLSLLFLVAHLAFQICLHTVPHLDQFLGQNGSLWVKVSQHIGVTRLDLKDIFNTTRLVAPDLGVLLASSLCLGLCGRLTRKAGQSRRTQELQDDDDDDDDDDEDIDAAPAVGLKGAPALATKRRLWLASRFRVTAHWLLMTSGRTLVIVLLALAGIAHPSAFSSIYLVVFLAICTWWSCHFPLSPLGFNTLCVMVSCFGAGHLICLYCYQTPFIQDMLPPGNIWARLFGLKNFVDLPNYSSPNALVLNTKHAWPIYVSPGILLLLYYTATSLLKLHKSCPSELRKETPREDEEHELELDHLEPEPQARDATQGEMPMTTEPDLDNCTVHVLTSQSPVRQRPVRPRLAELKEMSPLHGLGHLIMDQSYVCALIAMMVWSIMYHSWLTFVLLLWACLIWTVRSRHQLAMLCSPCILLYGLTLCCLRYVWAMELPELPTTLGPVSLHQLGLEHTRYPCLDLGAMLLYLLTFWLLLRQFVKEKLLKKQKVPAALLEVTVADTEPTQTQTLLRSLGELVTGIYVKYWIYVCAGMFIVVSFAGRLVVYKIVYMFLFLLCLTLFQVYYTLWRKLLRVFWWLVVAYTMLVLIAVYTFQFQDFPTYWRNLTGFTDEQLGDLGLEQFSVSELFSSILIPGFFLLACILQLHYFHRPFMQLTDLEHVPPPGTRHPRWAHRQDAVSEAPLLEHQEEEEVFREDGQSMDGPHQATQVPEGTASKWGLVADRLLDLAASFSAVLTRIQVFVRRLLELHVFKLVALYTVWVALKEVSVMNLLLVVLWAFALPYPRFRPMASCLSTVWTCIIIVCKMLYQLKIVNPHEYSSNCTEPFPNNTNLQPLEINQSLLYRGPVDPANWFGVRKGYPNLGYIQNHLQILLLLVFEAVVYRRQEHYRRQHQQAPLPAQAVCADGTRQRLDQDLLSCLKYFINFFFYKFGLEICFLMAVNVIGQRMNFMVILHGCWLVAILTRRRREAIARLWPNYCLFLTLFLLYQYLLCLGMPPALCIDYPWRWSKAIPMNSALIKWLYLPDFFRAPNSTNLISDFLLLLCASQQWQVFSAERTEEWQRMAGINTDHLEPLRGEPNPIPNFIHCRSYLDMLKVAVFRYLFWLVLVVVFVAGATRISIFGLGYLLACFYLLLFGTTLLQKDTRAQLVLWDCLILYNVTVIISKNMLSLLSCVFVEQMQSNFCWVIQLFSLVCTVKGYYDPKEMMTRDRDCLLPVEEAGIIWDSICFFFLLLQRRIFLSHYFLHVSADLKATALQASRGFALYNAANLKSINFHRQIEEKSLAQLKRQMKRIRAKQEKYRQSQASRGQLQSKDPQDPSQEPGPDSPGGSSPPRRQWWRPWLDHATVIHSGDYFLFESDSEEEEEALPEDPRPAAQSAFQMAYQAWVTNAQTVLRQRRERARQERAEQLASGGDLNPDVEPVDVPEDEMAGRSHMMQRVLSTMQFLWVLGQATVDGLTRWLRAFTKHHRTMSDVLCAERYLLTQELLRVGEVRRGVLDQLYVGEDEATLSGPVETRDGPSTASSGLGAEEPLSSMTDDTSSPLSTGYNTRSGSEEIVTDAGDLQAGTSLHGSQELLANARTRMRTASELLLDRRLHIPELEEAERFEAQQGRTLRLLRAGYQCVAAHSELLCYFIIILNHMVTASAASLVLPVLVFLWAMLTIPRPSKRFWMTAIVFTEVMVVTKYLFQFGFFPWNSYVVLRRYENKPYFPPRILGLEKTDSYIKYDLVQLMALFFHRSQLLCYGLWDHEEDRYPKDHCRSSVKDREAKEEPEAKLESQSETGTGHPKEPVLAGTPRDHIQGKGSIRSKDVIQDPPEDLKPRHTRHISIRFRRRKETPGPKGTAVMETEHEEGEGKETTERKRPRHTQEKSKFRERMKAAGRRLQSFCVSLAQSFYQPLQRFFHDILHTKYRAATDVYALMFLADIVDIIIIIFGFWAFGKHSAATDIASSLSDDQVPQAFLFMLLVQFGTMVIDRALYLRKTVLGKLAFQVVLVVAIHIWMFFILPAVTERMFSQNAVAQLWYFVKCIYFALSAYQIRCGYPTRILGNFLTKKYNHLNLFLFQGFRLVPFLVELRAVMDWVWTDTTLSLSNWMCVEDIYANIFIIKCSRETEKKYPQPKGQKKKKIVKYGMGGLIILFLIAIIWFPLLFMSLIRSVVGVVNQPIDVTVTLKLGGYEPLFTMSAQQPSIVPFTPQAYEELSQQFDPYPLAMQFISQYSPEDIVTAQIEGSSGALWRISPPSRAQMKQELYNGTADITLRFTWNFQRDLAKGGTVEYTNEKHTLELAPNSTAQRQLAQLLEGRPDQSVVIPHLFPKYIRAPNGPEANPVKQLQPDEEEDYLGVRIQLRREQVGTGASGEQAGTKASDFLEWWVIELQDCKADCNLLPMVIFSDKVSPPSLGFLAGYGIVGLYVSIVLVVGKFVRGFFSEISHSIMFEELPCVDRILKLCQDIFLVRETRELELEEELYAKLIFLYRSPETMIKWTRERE

- Mean (Ca2+ signal time course, Figure 4f) (R2351Q mPIEZO1; 0.3 µM, time 0 s): -0.00345
- Mean (Ca2+ signal time course, Figure 4f) (R2351Q mPIEZO1; 0.3 µM, time 5 s): -0.00122
- Mean (Ca2+ signal time course, Figure 4f) (R2351Q mPIEZO1; 0.3 µM, time 10 s): 0.01286
- Mean (Ca2+ signal time course, Figure 4f) (R2351Q mPIEZO1; 0.3 µM, time 15 s): 0.00659
- Mean (Ca2+ signal time course, Figure 4f) (R2351Q mPIEZO1; 0.3 µM, time 20 s): -0.0106
- Mean (Ca2+ signal time course, Figure 4f) (R2351Q mPIEZO1; 0.3 µM, time 25 s): -0.00417
- Mean (Ca2+ signal time course, Figure 4f) (R2351Q mPIEZO1; 0.3 µM, time 30 s): -0.1638
- Mean (Ca2+ signal time course, Figure 4f) (R2351Q mPIEZO1; 0.3 µM, time 35 s): -0.1525
- Mean (Ca2+ signal time course, Figure 4f) (R2351Q mPIEZO1; 0.3 µM, time 40 s): 0.1031
- Mean (Ca2+ signal time course, Figure 4f) (R2351Q mPIEZO1; 0.3 µM, time 45 s): 0.1823
- Mean (Ca2+ signal time course, Figure 4f) (R2351Q mPIEZO1; 0.3 µM, time 50 s): 0.2367
- Mean (Ca2+ signal time course, Figure 4f) (R2351Q mPIEZO1; 0.3 µM, time 55 s): 0.2605
- Mean (Ca2+ signal time course, Figure 4f) (R2351Q mPIEZO1; 0.3 µM, time 60 s): 0.2818
- Mean (Ca2+ signal time course, Figure 4f) (R2351Q mPIEZO1; 0.3 µM, time 65 s): 0.2859
- Mean (Ca2+ signal time course, Figure 4f) (R2351Q mPIEZO1; 0.3 µM, time 70 s): 0.3055
- Mean (Ca2+ signal time course, Figure 4f) (R2351Q mPIEZO1; 0.3 µM, time 75 s): 0.2731
- Mean (Ca2+ signal time course, Figure 4f) (R2351Q mPIEZO1; 0.3 µM, time 80 s): 0.2811
- Mean (Ca2+ signal time course, Figure 4f) (R2351Q mPIEZO1; 0.3 µM, time 85 s): 0.2788
- Mean (Ca2+ signal time course, Figure 4f) (R2351Q mPIEZO1; 0.3 µM, time 90 s): 0.2616
- Mean (Ca2+ signal time course, Figure 4f) (R2351Q mPIEZO1; 0.3 µM, time 95 s): 0.2726
- Mean (Ca2+ signal time course, Figure 4f) (R2351Q mPIEZO1; 0.3 µM, time 100 s): 0.2623
- Mean (Ca2+ signal time course, Figure 4f) (R2351Q mPIEZO1; 0.3 µM, time 105 s): 0.2451
- Mean (Ca2+ signal time course, Figure 4f) (R2351Q mPIEZO1; 0.3 µM, time 110 s): 0.2677
- Mean (Ca2+ signal time course, Figure 4f) (R2351Q mPIEZO1; 0.3 µM, time 115 s): 0.2432
- Mean (Ca2+ signal time course, Figure 4f) (R2351Q mPIEZO1; 0.3 µM, time 120 s): 0.2668
- Mean (Ca2+ signal time course, Figure 4f) (R2351Q mPIEZO1; 0.3 µM, time 125 s): 0.2392
- Mean (Ca2+ signal time course, Figure 4f) (R2351Q mPIEZO1; 0.3 µM, time 130 s): 0.2157
- Mean (Ca2+ signal time course, Figure 4f) (R2351Q mPIEZO1; 3 µM, time 0 s): -0.0127
- Mean (Ca2+ signal time course, Figure 4f) (R2351Q mPIEZO1; 3 µM, time 5 s): -0.01559
- Mean (Ca2+ signal time course, Figure 4f) (R2351Q mPIEZO1; 3 µM, time 10 s): 0.01198
- Mean (Ca2+ signal time course, Figure 4f) (R2351Q mPIEZO1; 3 µM, time 15 s): 0.01352
- Mean (Ca2+ signal time course, Figure 4f) (R2351Q mPIEZO1; 3 µM, time 20 s): 7.66E-04
- Mean (Ca2+ signal time course, Figure 4f) (R2351Q mPIEZO1; 3 µM, time 25 s): 0.00202
- Mean (Ca2+ signal time course, Figure 4f) (R2351Q mPIEZO1; 3 µM, time 30 s): -0.4931
- Mean (Ca2+ signal time course, Figure 4f) (R2351Q mPIEZO1; 3 µM, time 35 s): -0.08324
- Mean (Ca2+ signal time course, Figure 4f) (R2351Q mPIEZO1; 3 µM, time 40 s): 0.5902
- Mean (Ca2+ signal time course, Figure 4f) (R2351Q mPIEZO1; 3 µM, time 45 s): 0.919
- Mean (Ca2+ signal time course, Figure 4f) (R2351Q mPIEZO1; 3 µM, time 50 s): 1.153
- Mean (Ca2+ signal time course, Figure 4f) (R2351Q mPIEZO1; 3 µM, time 55 s): 1.288
- Mean (Ca2+ signal time course, Figure 4f) (R2351Q mPIEZO1; 3 µM, time 60 s): 1.4
- Mean (Ca2+ signal time course, Figure 4f) (R2351Q mPIEZO1; 3 µM, time 65 s): 1.461
- Mean (Ca2+ signal time course, Figure 4f) (R2351Q mPIEZO1; 3 µM, time 70 s): 1.455
- Mean (Ca2+ signal time course, Figure 4f) (R2351Q mPIEZO1; 3 µM, time 75 s): 1.399
- Mean (Ca2+ signal time course, Figure 4f) (R2351Q mPIEZO1; 3 µM, time 80 s): 1.41
- Mean (Ca2+ signal time course, Figure 4f) (R2351Q mPIEZO1; 3 µM, time 85 s): 1.397
- Mean (Ca2+ signal time course, Figure 4f) (R2351Q mPIEZO1; 3 µM, time 90 s): 1.327
- Mean (Ca2+ signal time course, Figure 4f) (R2351Q mPIEZO1; 3 µM, time 95 s): 1.295
- Mean (Ca2+ signal time course, Figure 4f) (R2351Q mPIEZO1; 3 µM, time 100 s): 1.247
- Mean (Ca2+ signal time course, Figure 4f) (R2351Q mPIEZO1; 3 µM, time 105 s): 1.236
- Mean (Ca2+ signal time course, Figure 4f) (R2351Q mPIEZO1; 3 µM, time 110 s): 1.129
- Mean (Ca2+ signal time course, Figure 4f) (R2351Q mPIEZO1; 3 µM, time 115 s): 1.087
- Mean (Ca2+ signal time course, Figure 4f) (R2351Q mPIEZO1; 3 µM, time 120 s): 1.099
- Mean (Ca2+ signal time course, Figure 4f) (R2351Q mPIEZO1; 3 µM, time 125 s): 1.0906
- Mean (Ca2+ signal time course, Figure 4f) (R2351Q mPIEZO1; 3 µM, time 130 s): 0.9817
- Mean (concentration-response, Figure 4g) (R2351Q mPIEZO1; Yoda2b concentration 0.01 µM): 6.31E-04
- Mean (concentration-response, Figure 4g) (R2351Q mPIEZO1; Yoda2b concentration 0.03 µM): 0.01052
- Mean (concentration-response, Figure 4g) (R2351Q mPIEZO1; Yoda2b concentration 0.1 µM): 0.03752
- Mean (concentration-response, Figure 4g) (R2351Q mPIEZO1; Yoda2b concentration 0.3 µM): 0.1939
- Mean (concentration-response, Figure 4g) (R2351Q mPIEZO1; Yoda2b concentration 1 µM): 0.4898
- Mean (concentration-response, Figure 4g) (R2351Q mPIEZO1; Yoda2b concentration 3 µM): 0.7217
- Mean (concentration-response, Figure 4g) (R2351Q mPIEZO1; Yoda2b concentration 10 µM): 0.9598
- channel activation compared with Yoda1 (R2351Q mPIEZO1; side-by-side, same 96-well plate): more potently activated by Yoda2b
- solubility kinetic [1]: 6.1 µM (≈ 2.42 µg/mL)
SMILES: O=C(O)c1ccc(-c2cnc(SCc3c(Cl)cccc3Cl)s2)cc1 [Yoda2b, 4-(2-([(2,6-Dichlorophenyl)methyl]sulfanyl)-1,3-thiazol-5-yl)benzoic acid]

Source: publication PMC12337661, “PIEZO1 mechanical insensitivity in generalized lymphatic dysplasia with the potential for pharmacological rescue” (iScience, 2025)
